Measurements from patent US8895504B2, “Amylin derivatives” (priority 2008, dated 2014).
*1 amine or outer side, *2 acyl side, *3 side chain or, on linkers, in order; H or OH if unused. Where a SMILES comes first, the peptide text is derived from it. Bridges are numbered along the chain shown (N, C = ends). The star is where a group is joined. C20 diacid = O=C(O)CCCCCCCCCCCCCCCCCCC(=O)*; C18 diacid = O=C(O)CCCCCCCCCCCCCCCCC(=O)*; γGlu = O=C(O)[C@H](CCC(=O)[*:2])N[*:1]; AEEA = NCCOCCOCC(=O)O

These compounds were tested against T1, Amylin 3(a) receptor (human calcitonin receptor (CTa) and RAMP-3) (Homo sapiens, UniProt O60896+P30988) (assay: Luciferase assay (III), BHK Amylin 3(a)//CRE-luc cells). Conditions: BHK cells with Amylin 3(a) receptor and CRE luciferase reporter, 4 hours incubation; read-out: Potency Luciferase.
T1 construct: expressed in transfected cells; host or cells: BHK570 cells, stably transfected with a CRE-luciferase reporter
T1 sequence (O60896 24-148): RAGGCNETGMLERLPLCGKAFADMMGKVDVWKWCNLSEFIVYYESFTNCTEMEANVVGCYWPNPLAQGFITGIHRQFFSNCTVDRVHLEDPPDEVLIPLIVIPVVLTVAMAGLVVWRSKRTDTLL
T1 sequence (P30988 25-474): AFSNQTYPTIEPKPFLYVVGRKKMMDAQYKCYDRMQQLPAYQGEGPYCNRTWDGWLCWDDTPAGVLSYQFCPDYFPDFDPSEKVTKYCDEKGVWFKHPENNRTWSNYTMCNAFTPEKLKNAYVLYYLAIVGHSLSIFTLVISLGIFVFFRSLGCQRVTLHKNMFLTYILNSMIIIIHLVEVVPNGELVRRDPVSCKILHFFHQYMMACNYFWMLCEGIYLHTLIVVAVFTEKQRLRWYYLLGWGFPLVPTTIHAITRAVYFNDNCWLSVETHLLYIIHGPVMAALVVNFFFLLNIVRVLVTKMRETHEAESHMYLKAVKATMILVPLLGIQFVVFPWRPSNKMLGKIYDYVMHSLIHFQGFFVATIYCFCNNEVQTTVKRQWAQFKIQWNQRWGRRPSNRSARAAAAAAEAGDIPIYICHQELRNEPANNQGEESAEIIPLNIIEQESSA
Type: cell-based
In short: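 Read-out is CRE-driven luciferase luminescence, taken 30 min after LucLite addition at room temperature. Compounds were incubated 4 h at 37° C in assay medium (10% FBS, 10 mM Hepes, pH 7,4). The cell line is BHK570 co-transfected with human calcitonin receptor CTa and RAMP-3, seeded overnight before use.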

Structure (SMILES) | EC50 [nM]
CC[C@H](C)[C@H](NC(=O)[C@@H]1CCCN1C(=O)CNC(=O)[C@H](Cc1ccccc1)NC(=O)[C@H](CC(N)=O)NC(=O)[C@H](CC(N)=O)NC(=O)[C@H](CO)NC(=O)[C@H](CO)NC(=O)[C@H](Cc1c[nH]cn1)NC(=O)[C@H](C)NC(=O)[C@H](CC(C)C)NC(=O)[C@H](Cc1ccccc1)NC(=O)[C@H](CC(N)=O)NC(=O)[C@H](C)NC(=O)[C@H](CC(C)C)NC(=O)[C@H](CCCNC(=N)N)NC(=O)[C@H](CCC(N)=O)NC(=O)[C@@H](NC(=O)[C@H](C)NC(=O)[C@@H]1CSSC[C@H](NC(=O)CC[C@H](NC(=O)CCCCCCCCCCCCCCCCCCC(=O)O)C(=O)O)C(=O)N[C@@H](CC(N)=O)C(=O)N[C@@H]([C@@H](C)O)C(=O)N[C@@H](C)C(=O)N[C@@H]([C@@H](C)O)C(=O)N1)[C@@H](C)O)C(=O)N[C@@H](CC(C)C)C(=O)N1CCC[C@H]1C(=O)N1CCC[C@H]1C(=O)N[C@H](C(=O)N[C@@H](CC(N)=O)C(=O)N[C@H](C(=O)NCC(=O)N[C@@H](CO)C(=O)N[C@@H](CC(N)=O)C(=O)N[C@H](C(=O)N[C@@H](Cc1ccc(O)cc1)C(N)=O)[C@@H](C)O)C(C)C)[C@@H](C)O [Example 12, N-alpha-[(S)-4-Carboxy-4-(19-carboxynonadecanoylamino)butyryl]-[Ala17]-pramlintide (2-37)] ({C20 diacid-γGlu}-CNTATCATQRLANFLAHSSNNFGPILPPTNVGSNTY-NH2; disulfide 1-6) | 0.1
CC[C@H](C)[C@H](NC(=O)[C@@H]1CCCN1C(=O)CNC(=O)[C@H](Cc1ccccc1)NC(=O)[C@H](CC(N)=O)NC(=O)[C@H](CCC(N)=O)NC(=O)[C@H](CO)NC(=O)[C@H](CO)NC(=O)[C@H](Cc1c[nH]cn1)NC(=O)[C@H](CCCNC(=N)N)NC(=O)[C@H](CC(C)C)NC(=O)[C@H](Cc1ccccc1)NC(=O)[C@H](CC(N)=O)NC(=O)[C@H](C)NC(=O)[C@H](CC(C)C)NC(=O)[C@H](CCCNC(=N)N)NC(=O)[C@H](CCC(N)=O)NC(=O)[C@@H](NC(=O)[C@H](C)NC(=O)[C@@H]1CSSC[C@H](NC(=O)[C@H](CCCNC(=N)N)NC(=O)[C@H](Cc2c[nH]cn2)NC(=O)[C@H](Cc2c[nH]cn2)NC(=O)COCCOCCNC(=O)CC[C@H](NC(=O)CCCCCCCCCCCCCCCCCCC(=O)O)C(=O)O)C(=O)N[C@@H](CC(N)=O)C(=O)N[C@@H]([C@@H](C)O)C(=O)N[C@@H](C)C(=O)N[C@@H]([C@@H](C)O)C(=O)N1)[C@@H](C)O)C(=O)N[C@@H](CC(C)C)C(=O)N1CCC[C@H]1C(=O)N1CCC[C@H]1C(=O)N[C@H](C(=O)N[C@@H](CC(N)=O)C(=O)N[C@H](C(=O)NCC(=O)N[C@@H](CO)C(=O)N[C@@H](CC(N)=O)C(=O)N[C@H](C(=O)N[C@@H](Cc1ccc(O)cc1)C(N)=O)[C@@H](C)O)C(C)C)[C@@H](C)O [Example 65, N-alpha-[2-(2-{2-[4-(S)-Carboxy-4-(19-carboxynonadecanoylamino)butyrylamino]ethoxy}ethoxy)acetyl]-His-His-[Arg1,Arg17,Gln21]-pramlintide] ({C20 diacid-γGlu-AEEA}-HHRCNTATCATQRLANFLRHSSQNFGPILPPTNVGSNTY-NH2; disulfide 4-9) | 0.1
CC[C@H](C)[C@H](NC(=O)[C@@H]1CCCN1C(=O)CNC(=O)[C@H](Cc1ccccc1)NC(=O)[C@H](CC(N)=O)NC(=O)[C@H](CC(N)=O)NC(=O)[C@H](CO)NC(=O)[C@H](CO)NC(=O)[C@H](Cc1c[nH]cn1)NC(=O)[C@H](CCCNC(=N)N)NC(=O)[C@H](CC(C)C)NC(=O)[C@H](Cc1ccccc1)NC(=O)[C@H](CC(N)=O)NC(=O)[C@H](C)NC(=O)[C@H](CC(C)C)NC(=O)[C@H](CCCNC(=N)N)NC(=O)[C@H](CCC(N)=O)NC(=O)[C@@H](NC(=O)[C@H](C)NC(=O)[C@@H]1CSSC[C@H](NC(=O)[C@H](CCCNC(=N)N)NC(=O)[C@H](Cc2c[nH]cn2)NC(=O)[C@H](Cc2c[nH]cn2)NC(=O)[C@H](CCC(=O)O)NC(=O)CC[C@H](NC(=O)CCCCCCCCCCCCCCCCCCC(=O)O)C(=O)O)C(=O)N[C@@H](CC(N)=O)C(=O)N[C@@H]([C@@H](C)O)C(=O)N[C@@H](C)C(=O)N[C@@H]([C@@H](C)O)C(=O)N1)[C@@H](C)O)C(=O)N[C@@H](CC(C)C)C(=O)N1CCC[C@H]1C(=O)N1CCC[C@H]1C(=O)N[C@H](C(=O)N[C@@H](CC(N)=O)C(=O)N[C@H](C(=O)NCC(=O)N[C@@H](CO)C(=O)N[C@@H](CC(N)=O)C(=O)N[C@H](C(=O)N[C@@H](Cc1ccc(O)cc1)C(N)=O)[C@@H](C)O)C(C)C)[C@@H](C)O [Example 58, N-alpha-[(S)-4-Carboxy-4-(19-carboxynonadecanoylamino)butyryl]-Glu-His-His-[Arg1,Arg17]-pramlintide] ({C20 diacid-γGlu}-EHHRCNTATCATQRLANFLRHSSNNFGPILPPTNVGSNTY-NH2; disulfide 5-10) | 0.2
CC[C@H](C)[C@H](NC(=O)[C@@H]1CCCN1C(=O)CNC(=O)[C@H](Cc1ccccc1)NC(=O)[C@H](CC(N)=O)NC(=O)[C@H](CC(N)=O)NC(=O)[C@H](CO)NC(=O)[C@H](CO)NC(=O)[C@H](Cc1c[nH]cn1)NC(=O)[C@H](Cc1c[nH]cn1)NC(=O)[C@H](CC(C)C)NC(=O)[C@H](Cc1ccccc1)NC(=O)[C@H](CC(N)=O)NC(=O)[C@H](C)NC(=O)[C@H](CC(C)C)NC(=O)[C@H](CCCNC(=N)N)NC(=O)[C@H](CCC(N)=O)NC(=O)[C@@H](NC(=O)[C@H](C)NC(=O)[C@@H]1CSSC[C@H](NC(=O)[C@H](CCCNC(=N)N)NC(=O)[C@H](Cc2c[nH]cn2)NC(=O)[C@H](Cc2c[nH]cn2)NC(=O)[C@H](CCC(=O)O)NC(=O)CC[C@H](NC(=O)CCCCCCCCCCCCCCCCCCC(=O)O)C(=O)O)C(=O)N[C@@H](CC(N)=O)C(=O)N[C@@H]([C@@H](C)O)C(=O)N[C@@H](C)C(=O)N[C@@H]([C@@H](C)O)C(=O)N1)[C@@H](C)O)C(=O)N[C@@H](CC(C)C)C(=O)N1CCC[C@H]1C(=O)N1CCC[C@H]1C(=O)N[C@H](C(=O)N[C@@H](CC(N)=O)C(=O)N[C@H](C(=O)NCC(=O)N[C@@H](CO)C(=O)N[C@@H](CC(N)=O)C(=O)N[C@H](C(=O)N[C@@H](Cc1ccc(O)cc1)C(N)=O)[C@@H](C)O)C(C)C)[C@@H](C)O [Example 67, N-alpha-[(S)-4-Carboxy-4-(19-carboxynonadecanoylamino)butyryl]-Glu-His-His-[Arg1,His17]-pramlintide] ({C20 diacid-γGlu}-EHHRCNTATCATQRLANFLHHSSNNFGPILPPTNVGSNTY-NH2; disulfide 5-10) | 0.1

Stronger by EC50, values ahead:

EC50 [nM] | Structure (SMILES)
0.08 | CC[C@H](C)[C@H](NC(=O)[C@@H]1CCCN1C(=O)CNC(=O)[C@H](Cc1ccccc1)NC(=O)[C@H](CC(N)=O)NC(=O)[C@H](CC(N)=O)NC(=O)[C@H](CO)NC(=O)[C@H](CO)NC(=O)[C@H](Cc1c[nH]cn1)NC(=O)[C@H](Cc1c[nH]cn1)NC(=O)[C@H](CC(C)C)NC(=O)[C@H](Cc1ccccc1)NC(=O)[C@H](CC(N)=O)NC(=O)[C@H](C)NC(=O)[C@H](CC(C)C)NC(=O)[C@H](CCCNC(=N)N)NC(=O)[C@H](CCC(N)=O)NC(=O)[C@@H](NC(=O)[C@H](C)NC(=O)[C@@H]1CSSC[C@H](NC(=O)[C@H](CCCCN)NC(=O)[C@H](CCCNC(=N)N)NC(=O)CC[C@H](NC(=O)CCCCCCCCCCCCCCCCCCC(=O)O)C(=O)O)C(=O)N[C@@H](CC(N)=O)C(=O)N[C@@H]([C@@H](C)O)C(=O)N[C@@H](C)C(=O)N[C@@H]([C@@H](C)O)C(=O)N1)[C@@H](C)O)C(=O)N[C@@H](CC(C)C)C(=O)N1CCC[C@H]1C(=O)N1CCC[C@H]1C(=O)N[C@H](C(=O)N[C@@H](CC(N)=O)C(=O)N[C@H](C(=O)NCC(=O)N[C@@H](CO)C(=O)N[C@@H](CC(N)=O)C(=O)N[C@H](C(=O)N[C@@H](Cc1ccc(O)cc1)C(N)=O)[C@@H](C)O)C(C)C)[C@@H](C)O [Example 17, N-alpha-[(S)-4-Carboxy-4-(19-carboxynonadecanoylamino)butyryl]-Arg-[His17]-pramlintide] ({C20 diacid-γGlu}-RKCNTATCATQRLANFLHHSSNNFGPILPPTNVGSNTY-NH2; disulfide 3-8)
0.05 | CC[C@H](C)[C@H](NC(=O)[C@@H]1CCCN1C(=O)CNC(=O)[C@H](Cc1ccccc1)NC(=O)[C@H](CC(N)=O)NC(=O)[C@H](CC(N)=O)NC(=O)[C@H](CO)NC(=O)[C@H](CO)NC(=O)[C@H](Cc1c[nH]cn1)NC(=O)[C@H](Cc1c[nH]cn1)NC(=O)[C@H](CC(C)C)NC(=O)[C@H](Cc1ccccc1)NC(=O)[C@H](CC(N)=O)NC(=O)[C@H](C)NC(=O)[C@H](CC(C)C)NC(=O)[C@H](CCCNC(=N)N)NC(=O)[C@H](CCC(N)=O)NC(=O)[C@@H](NC(=O)[C@H](C)NC(=O)[C@@H]1CSSC[C@H](NC(=O)[C@H](Cc2c[nH]cn2)NC(=O)[C@H](Cc2c[nH]cn2)NC(=O)[C@H](Cc2c[nH]cn2)NC(=O)CC[C@H](NC(=O)CCCCCCCCCCCCCCCCC(=O)O)C(=O)O)C(=O)N[C@@H](CC(N)=O)C(=O)N[C@@H]([C@@H](C)O)C(=O)N[C@@H](C)C(=O)N[C@@H]([C@@H](C)O)C(=O)N1)[C@@H](C)O)C(=O)N[C@@H](CC(C)C)C(=O)N1CCC[C@H]1C(=O)N1CCC[C@H]1C(=O)N[C@H](C(=O)N[C@@H](CC(N)=O)C(=O)N[C@H](C(=O)NCC(=O)N[C@@H](CO)C(=O)N[C@@H](CC(N)=O)C(=O)N[C@H](C(=O)N[C@@H](Cc1ccc(O)cc1)C(N)=O)[C@@H](C)O)C(C)C)[C@@H](C)O [Example 60, N-alpha-[(S)-4-Carboxy-4-(17-carboxyheptadecanoylamino)butyryl]-His-His-[His1,His17]-pramlintide] ({C18 diacid-γGlu}-HHHCNTATCATQRLANFLHHSSNNFGPILPPTNVGSNTY-NH2; disulfide 4-9)
